Data as given in US20080242688A1, “Method 741” (ASTRAZENECA AB, priority 2007, published 2008).

Tests used:
[1] = target: T1, rat recombinant α7 receptor (Rattus norvegicus, UniProt Q05941); assay: Whole cell current, oocytes; type: cell-based; conditions: oocyte
T1 construct: expressed in transfected cells; host or cells: Xenopus oocytes
Description: (§1) In membranes prepared either from cultured, human recombinant α7 receptor-expressing, human embryonic kidney cells α7-HEK) or from rat brain hippocampus, AZD0328 competed with binding of an iodinated form of the high-affinity, selective α7 receptor antagonist snake toxin, [^125I]-α-bungarotoxin (BTX) (Table 1). In Xenopus oocytes injected with human, recombinant α7 receptor mRNA, AZD0328 activates whole cell currents (Table 2). […] In acutely dissociated rat hippocampal interneurons, AZD0328 elicits rapidly activated, desensitizing whole-cell current (Table 1), consistent with the known properties of rat neuronal α7 receptors. […] AZD0328 modulates synaptic function, consistent with the well-known role of α7 receptors as heteroreceptor modulators of glutamatergic and GABAergic synaptic function.

[2] = target: T2, mouse recombinant α7 receptor (Mus musculus, UniProt P49582); assay: Whole cell current, oocytes; type: cell-based; conditions: oocyte
T2 construct: expressed in transfected cells; host or cells: Xenopus oocytes
Description: as §1

[3] = target: rat brain α7 receptors (Rattus norvegicus, UniProt Q05941); assay: BTX binding, rat hippocampal membranes
Method: AZD0328 is a reversible, high affinity ligand of human recombinant and rat brain α7 receptors. […]. Systemic administration of AZD0328 occupied rat brain α7 receptors and increased the number of α7 receptor binding sites. Very low doses of AZD0328 (0.00048-0.0016 mg/kg) improved spatial working memory performance in rhesus monkeys. The pharmacological profile of AZD0328 illustrates its potential utility to improve cognitive function by activating the α7 receptor.
. In Xenopus oocytes injected with human, recombinant α7 receptor mRNA, AZD0328 activates whole cell currents (Table 2). […] In acutely dissociated rat hippocampal interneurons, AZD0328 elicits rapidly activated, desensitizing whole-cell current (Table 1), consistent with the known properties of rat neuronal α7 receptors. […] AZD0328 modulates synaptic function, consistent with the well-known role of α7 receptors as heteroreceptor modulators of glutamatergic and GABAergic synaptic function.

T2 sequence (P49582 23-502): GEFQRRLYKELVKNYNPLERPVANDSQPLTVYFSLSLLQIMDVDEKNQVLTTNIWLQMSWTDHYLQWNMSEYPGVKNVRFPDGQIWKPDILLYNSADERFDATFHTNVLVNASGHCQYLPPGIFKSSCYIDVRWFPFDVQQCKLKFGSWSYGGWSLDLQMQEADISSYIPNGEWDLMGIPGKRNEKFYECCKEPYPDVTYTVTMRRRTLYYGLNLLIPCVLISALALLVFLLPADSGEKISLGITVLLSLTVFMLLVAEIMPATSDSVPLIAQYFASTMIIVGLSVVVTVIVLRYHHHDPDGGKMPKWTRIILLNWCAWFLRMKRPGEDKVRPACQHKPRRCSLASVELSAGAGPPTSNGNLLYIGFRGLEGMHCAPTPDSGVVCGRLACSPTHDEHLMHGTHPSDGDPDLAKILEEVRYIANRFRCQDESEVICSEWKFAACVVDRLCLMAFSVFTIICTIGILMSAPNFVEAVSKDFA
T1 sequence (Q05941 23-502): as the sequence (P49582 23-502) above, with T402A counted along it
rat brain α7 receptors, sequence (Q05941 23-502): as the sequence (P49582 23-502) above, with T402A counted along it

With c1cnc2c(c1)C[C@@]1(CN3CCC1CC3)O2 [AZD0328, (R)-Spiro[1-azabicyclo[2.2.2]octane-3,2′(3′H)-furo[2,3-b]pyridine]] the EC50 ([1]; rat recombinant α7) was 1100 nM, the Emax ([1]; rat recombinant α7, 10 μM, read-out: Maximum response, whole cell current) was 87% and the EC50 ([2]; mouse recombinant α7) was 1000 nM. It also gave an Emax ([2]; mouse recombinant α7, 10 μM, read-out: Maximum response, whole cell current) of 83% and a Ki [3] of 4.7 nM.
